In patent publication US20190060261A1, “ACTIVE COMBINATIONS OF PERILLIC ACID AND ACTIVITY ENHANCING SUBSTANCES” (B.R.A.I.N BIOTECHNOLOGY RESEARCH AND INFORMATION NETWORK AG, priority 2016, published 2019):
Values after ≈ are worked out from the molar mass of the structure shown. Where two headings read alike, the source gives them in different places.

Assays:
[1] = test system: Candida albicans ATCC®10231; assay: Minimal inhibition concentration (MIC), microdilution method; format: cell-based; details: for MIC: Candida albicans
Excerpt: (§1) The antimicrobial activity of different substances was examined and compared to perillic acid in vitro using the microdilution method adapted from DIN EN ISO 20776-1:2006. Besides perillic acid and its sodium salt, other organic acids like levulinic acid, p-anisic acid, benzoic acid and sorbic acid as well as alkane-1,2-diols such as hexane-1,2-diol, octane-1,2-diol and decane-1,2-diol were studied. Additionally, the commonly used preservatives 2-phenoxyethanol, 2-phenylethanol and benzyl alcohol were investigated.
(§2) All experiments were done in 96-well plates in a final volume of 200 μL. Test solutions of the investigated compounds were prepared in 25 mM buffered water. The procedure was conducted as following: 4 μL of the particular stock solution were mixed with 196 μL culture medium containing a defined inoculum of the respective target strain. Sterile controls (not inoculated) and growth controls (buffer instead of compound added) were performed. All compound concentrations were tested in triplicate for several times. The following contamination germs were examined: Escherichia coli ATCC 8739, Pseudomonas aeruginosa ATCC 9027, Stapyhlococcus aureus ATCC®6538, Bacillus subtilis subsp. spizizenii ATCC®6633, Candida albicans ATCC®10231 and Aspergillus brasiliensis ATCC®16404. The strains were cultivated either in Mueller-Hinton II Bouillon (Escherichia coli, Pseudomonas aeruginosa, Staphylococcus aureus), in yeast peptone dextrose (Bacillus subtilis, Candida albicans) or in potato dextrose medium (Aspergillus brasiliensis). All culture media were buffered with 25 mM MES-buffer. For compound testing, the plates were incubated at 37° C. for Escherichia coli, Pseudomonas aeruginosa and Staphylococcus aureus, at 28° C. for Bacillus subtilis and Candida albicans, and at 25° C. for Aspergillus brasiliensis. Plates were evaluated after 24 h and 72 h, respectively. The minimal inhibitory concentration (MIC) is defined as the concentration where no microbial growth was observed after 24 h and 72 h incubation at the specified temperature.
(§3) MIC-values are given according to the following letter code.

[2] = test system: Pseudomonas aeruginosa ATCC 9027; assay: as above; format: cell-based; details: for MIC: Pseudomonas aeruginosa
Excerpt: as §1, §2, §3

[3] = test system: Bacillus subtilis subsp. spizizenii ATCC®6633; assay: as above; format: cell-based; details: for MIC: Bacillus subtilis
Excerpt: as §1, §2, §3

[4] = test system: Aspergillus brasiliensis ATCC®16404; assay: as above; format: cell-based; details: for MIC: Aspergillus brasiliensis
Excerpt: as §1, §2, §3

[5] = test system: Stapyhlococcus aureus ATCC®6538; assay: as above; format: cell-based, Staphylococcus aureus; details: for MIC: Staphylococcus aureus
Excerpt: as §1, §2, §3

[6] = test system: Escherichia coli ATCC 8739; assay: Minimal inhibition concentration (MIC), microdilution method adapted from DIN EN ISO 20776-1:2006; format: cell-based; details: for MIC: Escherichia coli
Excerpt: as §1, §2, §3

[7] = test system: Pseudomonas aeruginosa; assay: Combination of substances with perillic acid: reduction of the MIC of perillic acid; format: cell-based; details: test compound combined with perillic acid; experiments as in Example 1
Description: as §2
(§4) Activity of perillic acid was comparably low against Gram-negative bacteria. It was thus tested whether the respective MIC could be reduced by combination of perillic acid with selected substances.
(§5) Experiments were performed as described for Example 1 above. A reduction factor was determined, expressing the reduction of the MIC of perillic acid that was achievable by combination with the combination partner. For example, a reduction factor of 2 means that the MIC of perillic acid was reduced by a factor of 2 by combination of perillic acid with the respective activity enhancing substance.

[8] = test system: Escherichia coli; assay: as above; format: cell-based; details: test compound combined with perillic acid; experiments as in Example 1
Description: as §2, §4, §5

[9] = ATCC10231, read-out: MIC [A to D] Candida albicans
[10] = ATCC9027, read-out: MIC [A to D] Pseudomonas aeruginosa
[11] = ATCC6633, read-out: MIC [A to D] Bacillus subtilis
[12] = ATCC8739, read-out: MIC [A to D] Escherichia coli
[13] = ATCC10231, yeast peptone dextrose, 25 mM MES-buffer, 28° C., no growth after 24 h and 72 h, read-out: MIC [A to D] Candida albicans
[14] = ATCC9027, Mueller-Hinton II Bouillon, 25 mM MES-buffer, 37° C., no growth after 24 h and 72 h, read-out: MIC [A to D] Pseudomonas aeruginosa
[15] = ATCC6633, yeast peptone dextrose, 25 mM MES-buffer, 28° C., no growth after 24 h and 72 h, read-out: MIC [A to D] Bacillus subtilis
[16] = ATCC16404, potato dextrose medium, 25 mM MES-buffer, 25° C., no growth after 24 h and 72 h, read-out: MIC [A to D] Aspergillus brasiliensis
[17] = ATCC6538, Mueller-Hinton II Bouillon, 25 mM MES-buffer, 37° C., no growth after 24 h and 72 h, read-out: MIC [A to D] Staphylococcus aureus
[18] = ATCC8739, Mueller-Hinton II Bouillon, 25 mM MES-buffer, 37° C., no growth after 24 h and 72 h, read-out: MIC [A to D] Escherichia coli
[19] = yeast peptone dextrose, 25 mM MES-buffer, 28° C., no growth after 24 h and 72 h
[20] = potato dextrose medium, 25 mM MES-buffer, 25° C., no growth after 24 h and 72 h
[21] = Mueller-Hinton II Bouillon, 25 mM MES-buffer, 37° C., no growth after 24 h and 72 h

Row | Structure (SMILES) | Reduction factor (reduction of the MIC of perillic acid by combination with the test compound) Pseudomonas aeruginosa [7] | Reduction factor (reduction of the MIC of perillic acid by combination with the test compound) Escherichia coli [8] | MIC [2, 14] [µg/mL] | MIC [4, 16] [µg/mL] | MIC [6, 18] [µg/mL] | MIC [A to D] Candida albicans [1, 19] | MIC [A to D] Bacillus subtilis [3, 19] | MIC [A to D] Aspergillus brasiliensis [4, 20] | MIC [A to D] Staphylococcus aureus [5, 21] | MIC [A to D] Pseudomonas aeruginosa [2, 21] | MIC [A to D] Escherichia coli [6, 21] | also measured
1 | OCCOc1ccccc1 [2-Phenoxyethanol, reference compound] | 20 | 30 |  |  |  |  |  |  |  |  |  | MIC [1, 9]: 5000 to 10000 µg/mL (≈ 36.2 to 72.4 mM); MIC [2, 10]: 5000 to 10000 µg/mL (≈ 36.2 to 72.4 mM); MIC [3, 11]: 5000 to 10000 µg/mL (≈ 36.2 to 72.4 mM); MIC ([4]; ATCC16404, read-out: MIC [A to D] Aspergillus brasiliensis): 5000 to 10000 µg/mL (≈ 36.2 to 72.4 mM); MIC ([5]; ATCC6538, read-out: MIC [A to D] Staphylococcus aureus): 5000 to 10000 µg/mL (≈ 36.2 to 72.4 mM); MIC [6, 12]: 5000 to 10000 µg/mL (≈ 36.2 to 72.4 mM)
2 | OCCc1ccccc1 [2-Phenylethanol, reference compound] | 8 | 40 | 5000 to 10000 (≈ 40.9 to 81.9 mM) | 5000 to 10000 (≈ 40.9 to 81.9 mM) | 5000 to 10000 (≈ 40.9 to 81.9 mM) |  |  |  |  |  |  | MIC [1, 13]: 5000 to 10000 µg/mL (≈ 40.9 to 81.9 mM); MIC [3, 15]: 5000 to 10000 µg/mL (≈ 40.9 to 81.9 mM); MIC [5, 17]: 5000 to 10000 µg/mL (≈ 40.9 to 81.9 mM)
3 | OCc1ccccc1 [Benzyl Alcohol, reference compound] | 5 | 20 | 5000 to 10000 (≈ 46.2 to 92.5 mM) | 5000 to 10000 (≈ 46.2 to 92.5 mM) | 5000 to 10000 (≈ 46.2 to 92.5 mM) |  |  |  |  |  |  | MIC [1, 13]: 5000 to 10000 µg/mL (≈ 46.2 to 92.5 mM); MIC [3, 15]: 5000 to 10000 µg/mL (≈ 46.2 to 92.5 mM); MIC [5, 17]: 5000 to 10000 µg/mL (≈ 46.2 to 92.5 mM)
4 | CCCCCCCCC(O)CO (stereo not shown) [Decane-1,2-diol] |  |  | 1000 to 5000 (≈ 5.74 to 28.7 mM) |  | 1000 to 5000 (≈ 5.74 to 28.7 mM) | D (MIC<0.1% (w/v)) | D (MIC<0.1% (w/v)) | D (MIC<0.1% (w/v)) | D (MIC<0.1% (w/v)) |  |  | 
5 | CC(=O)C1C(=O)C=C(C)OC1=O (stereo not shown) [Dehydroacetic acid] |  |  |  |  |  | D (MIC<0.1% (w/v)) | D (MIC<0.1% (w/v)) | D (MIC<0.1% (w/v)) | D (MIC<0.1% (w/v)) |  |  | MIC [2, 10]: 1000 to 5000 µg/mL (≈ 5.95 to 29.7 mM); MIC [6, 12]: 1000 to 5000 µg/mL (≈ 5.95 to 29.7 mM)
6 | CCCCCCCCCCC(O)CO (stereo not shown) [Dodecane-1,2-diol] |  |  |  |  | 5000 to 10000 (≈ 24.7 to 49.4 mM) | D (MIC<0.1% (w/v)) | D (MIC<0.1% (w/v)) | D (MIC<0.1% (w/v)) | D (MIC<0.1% (w/v)) | D (MIC<0.1% (w/v)) |  | 
7 | CCCCC(O)CO (stereo not shown) [Hexane-1,2-diol] |  |  | 5000 to 10000 (≈ 42.3 to 84.6 mM) | 5000 to 10000 (≈ 42.3 to 84.6 mM) | 5000 to 10000 (≈ 42.3 to 84.6 mM) | A (MIC>1% (w/v)) | A (MIC>1% (w/v)) |  | A (MIC>1% (w/v)) |  |  | 
8 | C/C=C/C=C/C(=O)[O-].[K+] [Potassium sorbate] | 40 | 200 |  |  |  |  |  | A (MIC>1% (w/v)) | A (MIC>1% (w/v)) | A (MIC>1% (w/v)) |  | MIC [1, 9]: 5000 to 10000 µg/mL; MIC [3, 11]: 1000 to 5000 µg/mL; MIC [6, 12]: 5000 to 10000 µg/mL
9 | O=C([O-])c1ccccc1.[Na+] [Sodium benzoate] |  |  |  |  |  | C (MIC=0.1-0.5% (w/v)) | D (MIC<0.1% (w/v)) | A (MIC>1% (w/v)) | B (MIC=0.5-1% (w/v)) | B (MIC=0.5-1% (w/v)) | B (MIC=0.5-1% (w/v)) | 

Second part, led by results:

Row | Reduction factor (reduction of the MIC of perillic acid by combination with the test compound) Pseudomonas aeruginosa [7] | Reduction factor (reduction of the MIC of perillic acid by combination with the test compound) Escherichia coli [8] | MIC [2, 14] [µg/mL] | MIC [4, 16] [µg/mL] | MIC [6, 18] [µg/mL] | MIC [A to D] Candida albicans [1, 19] | MIC [A to D] Bacillus subtilis [3, 19] | MIC [A to D] Aspergillus brasiliensis [4, 20] | MIC [A to D] Staphylococcus aureus [5, 21] | MIC [A to D] Pseudomonas aeruginosa [2, 21] | MIC [A to D] Escherichia coli [6, 21] | Structure (SMILES) | also measured
10 |  |  |  |  |  | D (MIC<0.1% (w/v)) | D (MIC<0.1% (w/v)) | D (MIC<0.1% (w/v)) | D (MIC<0.1% (w/v)) | B (MIC=0.5-1% (w/v)) | C (MIC=0.1-0.5% (w/v)) | C=C(C)[C@H]1CC=C(C(=O)O)CC1 [R-Perillic acid] | 
11 |  |  |  |  |  | D (MIC<0.1% (w/v)) | D (MIC<0.1% (w/v)) | D (MIC<0.1% (w/v)) | D (MIC<0.1% (w/v)) | B (MIC=0.5-1% (w/v)) | C (MIC=0.1-0.5% (w/v)) | C=C(C)[C@@H]1CC=C(C(=O)O)CC1 [S-Perillic acid] | 
12 | 80 | 40 |  | 1000 to 5000 (≈ 7.24 to 36.2 mM) |  |  | D (MIC<0.1% (w/v)) |  | D (MIC<0.1% (w/v)) | D (MIC<0.1% (w/v)) | D (MIC<0.1% (w/v)) | O=C(O)c1ccccc1O [Salicylic acid] | MIC [1, 13]: 1000 to 5000 µg/mL (≈ 7.24 to 36.2 mM)
13 |  |  |  |  |  | D (MIC<0.1% (w/v)) | D (MIC<0.1% (w/v)) | D (MIC<0.1% (w/v)) | D (MIC<0.1% (w/v)) | B (MIC=0.5-1% (w/v)) | C (MIC=0.1-0.5% (w/v)) | C=C(C)C1CC=C(C(=O)[O-])CC1.[Na+] (stereo not shown) [Sodium perillate] | 
14 |  |  | 1000 to 5000 (≈ 6.57 to 32.9 mM) | 1000 to 5000 (≈ 6.57 to 32.9 mM) | 1000 to 5000 (≈ 6.57 to 32.9 mM) |  |  |  |  |  |  | COc1ccc(C(=O)O)cc1 [p-Anisic acid] | MIC [1, 13]: 5000 to 10000 µg/mL (≈ 32.9 to 65.7 mM); MIC [3, 15]: 1000 to 5000 µg/mL (≈ 6.57 to 32.9 mM); MIC [5, 17]: 1000 to 5000 µg/mL (≈ 6.57 to 32.9 mM)
